{"source": "patent US20230000849A1", "about": "“INHIBITION OF SMARCA2 FOR TREATMENT OF CANCER” (Epizyme, Inc., priority 2017, published 2023)", "key": {"SMARCA2": {"target": "SMARCA2 (Homo sapiens, UniProt P51531)", "sequence (P51531 whole entry)": "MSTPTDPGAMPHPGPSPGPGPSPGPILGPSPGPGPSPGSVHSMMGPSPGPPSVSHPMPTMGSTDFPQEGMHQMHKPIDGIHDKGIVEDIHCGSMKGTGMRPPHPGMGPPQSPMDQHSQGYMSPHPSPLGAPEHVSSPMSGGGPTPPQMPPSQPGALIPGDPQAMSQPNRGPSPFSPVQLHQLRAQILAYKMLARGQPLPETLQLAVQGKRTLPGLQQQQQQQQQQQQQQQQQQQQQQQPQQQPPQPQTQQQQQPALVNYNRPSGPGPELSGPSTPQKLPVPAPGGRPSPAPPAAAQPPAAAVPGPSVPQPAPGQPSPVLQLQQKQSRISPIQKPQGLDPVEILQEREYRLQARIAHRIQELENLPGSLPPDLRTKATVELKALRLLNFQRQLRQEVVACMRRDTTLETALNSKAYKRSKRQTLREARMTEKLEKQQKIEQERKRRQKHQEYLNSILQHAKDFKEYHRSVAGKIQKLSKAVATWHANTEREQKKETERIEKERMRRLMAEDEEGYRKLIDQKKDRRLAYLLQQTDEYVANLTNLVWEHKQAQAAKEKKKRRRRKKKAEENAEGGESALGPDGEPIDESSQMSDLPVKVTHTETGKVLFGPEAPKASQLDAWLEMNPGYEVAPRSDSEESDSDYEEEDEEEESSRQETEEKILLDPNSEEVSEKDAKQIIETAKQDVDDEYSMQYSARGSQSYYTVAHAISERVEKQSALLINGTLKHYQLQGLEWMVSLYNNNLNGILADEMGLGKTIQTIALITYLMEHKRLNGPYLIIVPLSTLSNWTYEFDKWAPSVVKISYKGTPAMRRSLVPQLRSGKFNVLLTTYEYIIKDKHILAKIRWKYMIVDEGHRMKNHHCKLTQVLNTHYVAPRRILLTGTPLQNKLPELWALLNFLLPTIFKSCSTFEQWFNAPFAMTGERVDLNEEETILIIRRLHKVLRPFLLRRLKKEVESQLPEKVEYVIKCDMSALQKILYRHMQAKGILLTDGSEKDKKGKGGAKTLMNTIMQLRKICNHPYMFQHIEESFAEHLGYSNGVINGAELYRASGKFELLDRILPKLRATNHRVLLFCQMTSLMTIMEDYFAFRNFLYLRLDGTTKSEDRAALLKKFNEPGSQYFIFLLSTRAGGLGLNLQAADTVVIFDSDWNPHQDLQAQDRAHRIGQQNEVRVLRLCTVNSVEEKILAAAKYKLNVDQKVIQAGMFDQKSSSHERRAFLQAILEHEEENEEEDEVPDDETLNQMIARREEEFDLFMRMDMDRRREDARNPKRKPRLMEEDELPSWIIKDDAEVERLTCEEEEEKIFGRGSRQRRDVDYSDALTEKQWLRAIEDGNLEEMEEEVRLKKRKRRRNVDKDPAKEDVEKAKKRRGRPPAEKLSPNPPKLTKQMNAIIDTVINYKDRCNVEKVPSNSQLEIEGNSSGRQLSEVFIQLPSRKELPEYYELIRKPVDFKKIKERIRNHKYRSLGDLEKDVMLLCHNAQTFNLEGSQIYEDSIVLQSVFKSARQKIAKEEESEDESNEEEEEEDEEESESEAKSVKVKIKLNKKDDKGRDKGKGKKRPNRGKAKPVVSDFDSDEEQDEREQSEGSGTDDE", "experiment": "SMARCA2 ATPase activity inhibition by known bromodomain inhibitors (HTS ADP-Glo bioluminescent format)", "format": "biochemical", "details": "read-out: % inh SMARCA2 at 10 nM", "experimental": "As such, the development of viable antagonists or inhibitors (i.e., ATPase inhibitors) requires methods of monitoring ATPase activity.\nThe signal to background ratio, ATPase activity as a function of protein concentration, and the dependence of ATP activity on mononucleosome substrate were determined for the isolated full length SMARCA2 and SMARACA4 in a high throughput screening bioluminescent assay (HTS ADP-Glo™ format)."}, "SMACA2": {"target": "SMACA2 (Homo sapiens, UniProt P51531)", "sequence (P51531 whole entry)": "as above", "experiment": "PFI-3 binding to SMARCA2 (FIG. 6A)"}, "[1]": {"system": "SMARCA4 wild-type or mutant cell lines", "experiment": "Cell growth in SMARCA4 wild-type or mutant cell lines (FIG. 6B)", "format": "cell-based", "details": "SMARCA4-wt or mutant cell lines", "source_text": "FIGS. 6A and 6B are a series of graphs illustrating antiproliferative effects of bromodomain inhibitor PFI-3."}}, "note": "“Also recorded” adds a separate entry of the source.", "data": [{"smiles": "O=C(/C=C/N1C[C@H]2C[C@@H]1CN2c1ccccn1)c1ccccc1O", "note": "[PFI3]", "values": [{"measurement": "inhibition at 0.01 µM", "setting": "SMARCA2", "result": 5, "unit": "%"}, {"measurement": "binding affinity to SMARCA2", "setting": "SMACA2", "result": "nanomolar affinity"}, {"measurement": "effect on cell growth", "setting": "[1]", "result": "no functional effect; also recorded: does not impact cell growth"}]}]}
